Measured values: ChEMBL document CHEMBL6115036, “Exploration of membrane-active cephalosporin derivatives as potent antibacterial agents against Staphylococcus aureus biofilms and persisters” (Eur J Med Chem, 2025)
Values after ≈ are worked out from the molar mass of the structure shown. Active and inactive are the calls of the source. The rule behind the calls is not given here.

How the values were obtained:
[1] = system: Staphylococcus aureus; test: Antimicrobial activity against Staphylococcus aureus incubated for 16 to 18 hrs by broth dilution assay; type: functional; details: time 16-18 hrs
[2] = system: Staphylococcus aureus; test: Antibacterial activity against Staphylococcus aureus in presence of 50% sheep plasma; type: functional, organism-based
[3] = system: Staphylococcus aureus; test: Induction of resistance development in drug-resistant Staphylococcus aureus at sub-MIC measured after 20 passages in presence of norfloxacin; type: functional, organism-based
[4] = system: Staphylococcus aureus; test: Induction of intracellular ROS accumulation in Staphylococcus aureus at 1 to 4 times MIC incubated overnight by DCFH-DA dye based analysis; type: functional, organism-based
[5] = Hemolytic activity in sheep red blood cells incubated for 1 hr; type: toxicity, cell-based, Ovis aries, Erythrocyte
[6] = system: Staphylococcus aureus; test: Induction of resistance development in Staphylococcus aureus at sub-MIC measured after 20 passages; type: functional, organism-based
[7] = system: Staphylococcus aureus; test: Induction of resistance development in drug-resistant Staphylococcus aureus at sub-MIC measured after 20 passages in presence of ciprofloxacin; type: functional, organism-based
[8] = system: Staphylococcus aureus; test: Antibacterial activity against Staphylococcus aureus assessed as effect on quiescent cells at 100 to 200 times MIC incubated for 24 hrs; type: functional, organism-based
[9] = system: Staphylococcus aureus; test: Inhibition of biofilm formation in Staphylococcus aureus assessed as decrease in bacterial count at 32 times MIC incubated for 24 hrs by CLSM analysis; type: functional, organism-based
[10] = system: Staphylococcus aureus; test: Antibacterial activity against Staphylococcus aureus infected in Kunming mouse model of subcutaneous abscess assessed as bacterial count in skin tissue at 10 mg/kg, sc measured after 48 hrs; type: functional
[11] = system: Staphylococcus aureus; test: Induction of resistance development in drug-resistant Staphylococcus aureus at sub-MIC measured after 20 passages in presence of ampicillin sodium; type: functional, organism-based
[12] = system: Staphylococcus aureus; test: Disruption of cell membrane in Staphylococcus aureus assessed as nucleic acid leakage at 32 ug/ml measured after 2 hrs by fluorescence based analysis; type: functional, organism-based; details: dose 32.0 µg/ml
[13] = system: Enterococcus faecalis; test: Antimicrobial activity against Enterococcus faecalis incubated for 16 to 18 hrs by broth dilution assay; type: functional; details: time 16-18 hrs
[14] = system: Staphylococcus aureus; test: Induction of resistance development in drug-resistant Staphylococcus aureus at sub-MIC measured after 20 passages in presence of vancomycin; type: functional, organism-based
[15] = system: Staphylococcus aureus; test: Disruption of cell membrane in Staphylococcus aureus assessed as protein leakage at 32 ug/ml measured after 2 hrs by fluorescence based analysis; type: functional, organism-based; details: dose 32.0 µg/ml
[16] = system: Staphylococcus aureus; test: Antibacterial activity against rifampicin-induced persistant Staphylococcus aureus assessed as decrease in CFU at 100 times MIC measured for 10 hrs; type: functional, organism-based
[17] = system: Staphylococcus aureus; test: Bactericidal activity against Staphylococcus aureus measured for 3 to 6 hrs in presence of 50% sheep plasma; type: functional, organism-based; details: time 3-6 hrs
[18] = system: Escherichia coli; test: Antimicrobial activity against Escherichia coli incubated for 16 to 18 hrs by broth dilution assay; type: functional; details: time 16-18 hrs
[19] = system: Staphylococcus aureus; test: Induction of resistance development in drug-resistant Staphylococcus aureus at sub-MIC measured after 20 passages in presence of levofloxacin; type: functional, organism-based
[20] = system: Staphylococcus aureus; test: Antibacterial activity against Staphylococcus aureus infected in Kunming mouse model of subcutaneous abscess assessed as reduction in bacterial load in skin tissue at 10 mg/kg, sc measured after 48 hrs relative to control; type: functional; parameters: scale not given: the % may be the effect or the level left
[21] = system: Staphylococcus aureus; test: Induction of resistance development in drug-resistant Staphylococcus aureus at sub-MIC measured after 20 passages in presence of linezolid; type: functional, organism-based
[22] = system: Staphylococcus aureus; test: Induction of resistance development in drug-resistant Staphylococcus aureus at sub-MIC measured after 20 passages in presence of rifampicin; type: functional, organism-based
[23] = system: Stenotrophomonas maltophilia; test: Antimicrobial activity against Stenotrophomonas maltophilia incubated for 16 to 18 hrs by broth dilution assay; type: functional; details: time 16-18 hrs
[24] = system: Staphylococcus aureus; test: Induction of resistance development in drug-resistant Staphylococcus aureus at sub-MIC measured after 20 passages in presence of cefuroxime sodium; type: functional, organism-based
[25] = system: Staphylococcus aureus; test: Antibacterial activity against Staphylococcus aureus in presence of 50% FBS; type: functional, organism-based

For `CC(=O)OCC1=C(C(=O)O)N2C(=O)[C@@H](NC(=O)Cc3cccs3)[C@H]2SC1` [CEPHALOTHIN], the MIC [1] was 0.25 µg/mL (≈ 0.631 µM), the Activity [2] was “Active; Mic Value Of Compound In Plasma Was Equal To Mic In Mhb Medium” and the Activity [3] was “inactive”. For the same compound, the Activity [4] was “inactive”, the HC50 at 1 h [5] was greater than 1280 µg/mL and the Activity [6] was “inactive”. The Activity [7] was “inactive”, the Activity [8] was “inactive” and the inhibition [9] was “inactive”. For the same compound, the Activity [10] was ~2 10^7CFU/ml, the Activity [11] was “inactive” and the Activity [12] was “inactive”. The MIC [13] was 32 µg/mL (≈ 80.7 µM), the Activity [14] was “inactive” and the Activity [15] was “inactive”. The Activity [16] was “inactive”, the Activity [17] was “Active” and the MIC [18] was 16 µg/mL (≈ 40.4 µM). For the same compound, the Activity [19] was “inactive”, the Activity [20] was 54% and the Activity [21] was “inactive”. The Activity [22] was “inactive”, the MIC [23] was 16 µg/mL (≈ 40.4 µM) and the Activity [24] was “inactive”. The Activity [25] was “Active; Mic Value Of Compound In Serum Was Equal To Mic In Mhb Medium”.
